Assay results taken from PubChem BioAssay AID624167 (Sanford-Burnham Center for Chemical Genomics, 2012).
The source made the active and inactive calls.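 Rule for the calls: active = mean IC50 for reducing PEG3 promoter reporter signal at or below a set limit, with IC50 above the limit in both counter screens; inactive = the rest, including counter screen hits.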

Assays:
PEG-3 [1] = test: Peg3 promoter luciferase inhibitors, potency, dose response, cell-based, HeLa, CREF/GAPDH counter-screen panel (AID 624167); settings: HeLa PEG-Prom luciferase reporter, overnight, CREF/GAPDH counter-screens
PEG-3 [2] = molecular target: PEG-3 (UniProt Q6IN02); test: as above; settings: HeLa PEG-Prom luciferase reporter, overnight, CREF/GAPDH counter-screens, mean of runs
[3] = run 1, dose range 1, individual replicate IC50 per panel
[4] = run 2, dose range 1, individual replicate IC50 per panel

PEG-3 (UniProt Q6IN02), sequence (Q6IN02 whole entry, looked up): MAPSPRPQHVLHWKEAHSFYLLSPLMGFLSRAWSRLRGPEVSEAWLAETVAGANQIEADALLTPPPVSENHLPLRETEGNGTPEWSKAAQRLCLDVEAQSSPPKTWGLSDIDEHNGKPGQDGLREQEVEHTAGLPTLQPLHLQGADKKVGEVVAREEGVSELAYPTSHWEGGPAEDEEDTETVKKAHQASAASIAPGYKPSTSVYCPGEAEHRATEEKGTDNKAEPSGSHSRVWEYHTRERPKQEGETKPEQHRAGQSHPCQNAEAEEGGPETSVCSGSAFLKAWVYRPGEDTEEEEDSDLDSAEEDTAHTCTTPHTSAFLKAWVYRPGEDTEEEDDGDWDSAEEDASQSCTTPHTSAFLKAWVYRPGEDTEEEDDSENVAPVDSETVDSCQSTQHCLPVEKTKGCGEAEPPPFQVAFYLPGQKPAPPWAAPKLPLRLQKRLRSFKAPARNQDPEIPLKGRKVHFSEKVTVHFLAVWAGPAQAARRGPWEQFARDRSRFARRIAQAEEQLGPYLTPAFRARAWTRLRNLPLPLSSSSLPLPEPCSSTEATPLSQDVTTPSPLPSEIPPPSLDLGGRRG

With `O=C(c1ccoc1)N1CCN(c2cc(-c3ccccc3)nc3cc(-c4ccccc4)nn23)CC1` the IC50 (PEG-3 [1]; [3]) was 13.3 µM, the IC50 (PEG-3 [1]; [4]) was 9.7 µM and the IC50 (PEG-3 [2]) was 11.5 µM.
`O=C(Cc1csc(Nc2nc(=S)[nH]c3ccccc23)n1)NCc1ccccc1Cl` was tested, and the IC50 (PEG-3 [1]; [3]) was over 100 µM, the IC50 (PEG-3 [1]; [4]) was over 100 µM and the IC50 (PEG-3 [2]) was > 100 µM (inactive).
For `COc1cc(-c2cc(C(=O)N(C)Cc3ccccc3)c3ccccc3n2)cc(OC)c1OC`, the IC50 (PEG-3 [1]; [3]) was 69.3 µM, the IC50 (PEG-3 [1]; [4]) was 72.2 µM and the IC50 (PEG-3 [2]) was “inactive”.
For `COc1cccc(N2CCN(CC(=O)Nc3ccccc3C(=O)NCc3ccccc3)CC2)c1`, the IC50 (PEG-3 [1]; [3]) was 16.6 µM, the IC50 (PEG-3 [1]; [4]) was 35 µM and the IC50 (PEG-3 [2]) was “inactive”.
In the case of `CCN(CC)CCCCNc1ncc2cc(-c3cc(OC)cc(OC)c3)c(NC(=O)NC(C)(C)C)nc2n1`, the IC50 (PEG-3 [1]; [3]) is reported as 21 µM, the IC50 (PEG-3 [1]; [4]) is reported as 20.9 µM and the IC50 (PEG-3 [2]) is reported as “inactive”.
`CCOc1cc(/C=N/Nc2nc(-c3cccc(S(=O)(=O)N4CCCC4)c3)cs2)ccc1O` was tested, and the IC50 (PEG-3 [1]; [3]) was 22.3 µM, the IC50 (PEG-3 [1]; [4]) was 60.1 µM and the IC50 (PEG-3 [2]) was “inactive”.
Work on `CCn1cc(CN2CCC(C(=O)Nc3cccc(-c4cccc(Cl)c4)c3)CC2)cn1` yielded an IC50 (PEG-3 [1]; [3]) of 19.3 µM, an IC50 (PEG-3 [1]; [4]) of 14.4 µM and an IC50 (PEG-3 [2]) of 16.8 µM.
Compound `c1ccc(C[C@H]2CNCCN2CCCCC2CCCCC2)cc1` has an IC50 (PEG-3 [1]; [3]) of 20.1 µM, an IC50 (PEG-3 [1]; [4]) of 14.8 µM and an IC50 (PEG-3 [2]) of 17.5 µM.
In the case of `CC(=O)NC(c1ccc(C)cc1)c1cc(Cl)c2cccnc2c1O` (stereo not drawn), the IC50 (PEG-3 [1]; [3]) is reported as 3.25 µM, the IC50 (PEG-3 [1]; [4]) is reported as over 100 µM and the IC50 (PEG-3 [2]) is reported as “inactive”.
`Cc1c(C(=O)Nc2ccc(S(=O)(=O)N(C)C3CCN(C)CC3)cc2)oc2c(Cl)cccc12` showed an IC50 (PEG-3 [1]; [3]) of 16.5 µM, an IC50 (PEG-3 [1]; [4]) of 9.1 µM and an IC50 (PEG-3 [2]) of 12.8 µM.
`CCCCCCC=C1CCC(CN2CCCC2)C1=O` (stereo not drawn) was tested, and the IC50 (PEG-3 [1]; [3]) was 35.6 µM, the IC50 (PEG-3 [1]; [4]) was 29.6 µM and the IC50 (PEG-3 [2]) was “inactive”.
For `CCOC(=O)C1=C(COCCN)NC(C)=C(C(=O)OC)C1c1ccccc1Cl` (stereo not drawn), the IC50 (PEG-3 [1]; [3]) was 19 µM, the IC50 (PEG-3 [1]; [4]) was 12.1 µM and the IC50 (PEG-3 [2]) was 15.6 µM.
`CC1(C)Cc2c(C#N)c(N3CCNCC3)nc(-c3ccco3)c2CS1` was tested, and the IC50 (PEG-3 [1]; [3]) was 22.7 µM, the IC50 (PEG-3 [1]; [4]) was 17.2 µM and the IC50 (PEG-3 [2]) was 19.9 µM.
For `O=C(c1cc(-c2cccs2)nn1-c1ccccc1)N1CCN(S(=O)(=O)c2ccccc2)CC1`, the IC50 (PEG-3 [1]; [3]) was 8.84 µM, the IC50 (PEG-3 [1]; [4]) was over 100 µM and the IC50 (PEG-3 [2]) was “inactive”.
In the case of `Cc1ccc(C2=NC(=O)/C(=C/c3cc(O)c(O)c(Br)c3)S2)cc1`, the IC50 (PEG-3 [1]; [3]) is reported as 17.1 µM, the IC50 (PEG-3 [1]; [4]) is reported as 27.1 µM and the IC50 (PEG-3 [2]) is reported as “inactive”.
Compound `CN1CCC(NC(=O)c2cc(-c3cccc(Br)c3)nc3ccccc23)CC1` has an IC50 (PEG-3 [1]; [3]) of 20.9 µM, an IC50 (PEG-3 [1]; [4]) of 15.1 µM and an IC50 (PEG-3 [2]) of 18 µM.
With `CCCCNC(=O)C(C)N(CCN(C)C)C(=O)CCCCCN1C(=O)NC(c2ccc(Cl)cc2)C(C(=O)OCc2ccccc2)=C1C` (stereo not drawn) the IC50 (PEG-3 [1]; [3]) was 16.2 µM, the IC50 (PEG-3 [1]; [4]) was 10.1 µM and the IC50 (PEG-3 [2]) was 13.2 µM.
For `O=C1c2ccccc2C(=O)C12OC2c1ccc(Cl)cc1Cl` (stereo not drawn), the IC50 (PEG-3 [1]; [3]) was 28.4 µM, the IC50 (PEG-3 [1]; [4]) was 14.6 µM and the IC50 (PEG-3 [2]) was “inactive”.
In the case of `O=C(Nc1ccccc1N1CCOCC1)c1cc(-c2ccncc2)nc2ccccc12`, the IC50 (PEG-3 [1]; [3]) is reported as 33 µM, the IC50 (PEG-3 [1]; [4]) is reported as 78.3 µM and the IC50 (PEG-3 [2]) is reported as “inactive”.
Work on `Cc1c(C#N)c(N)nc2c3c(sc12)NC(=O)CC3c1ccc(Cl)cc1` (stereo not drawn) yielded an IC50 (PEG-3 [1]; [3]) of 17.4 µM, an IC50 (PEG-3 [1]; [4]) of 11 µM and an IC50 (PEG-3 [2]) of 14.2 µM.
`CCCCNc1c(-c2cccc(Sc3ccc(OC)cc3)c2)nc2ccccn12` was tested, and the IC50 (PEG-3 [1]; [3]) was 16.7 µM, the IC50 (PEG-3 [1]; [4]) was 10.6 µM and the IC50 (PEG-3 [2]) was 13.6 µM.
With `Cc1ccsc1C(=O)OCC(=O)c1cc(C)n(CC2CCCO2)c1C` (stereo not drawn) the IC50 (PEG-3 [1]; [3]) was 11.8 µM, the IC50 (PEG-3 [1]; [4]) was 18 µM and the IC50 (PEG-3 [2]) was 14.9 µM.
With `COc1ccc(C)cc1Nc1n[n+](-c2ccccc2)c(-c2ccc(N(C)C)cc2)s1` the IC50 (PEG-3 [1]; [3]) was 36.3 µM, the IC50 (PEG-3 [1]; [4]) was 65.2 µM and the IC50 (PEG-3 [2]) was “inactive”.
Work on `COc1cccc(C(=O)c2sc(NC(C)C)nc2N)c1` yielded an IC50 (PEG-3 [1]; [3]) of 16.5 µM, an IC50 (PEG-3 [1]; [4]) of 13.6 µM and an IC50 (PEG-3 [2]) of 15 µM.
In the case of `CC(C)CN(C(=O)COC(=O)/C=C/c1ccc(Cl)c(Cl)c1)c1c(N)n(Cc2ccccc2)c(=O)[nH]c1=O`, the IC50 (PEG-3 [1]; [3]) is reported as over 100 µM, the IC50 (PEG-3 [1]; [4]) is reported as over 100 µM and the IC50 (PEG-3 [2]) is reported as > 100 µM (inactive).
For `Cc1ccc(-c2nnc(N3CCN(c4ccccn4)CC3)c3ccccc23)cc1`, the IC50 (PEG-3 [1]; [3]) was 20.9 µM, the IC50 (PEG-3 [1]; [4]) was 15.4 µM and the IC50 (PEG-3 [2]) was 18.2 µM.
